Assay results as given in US11753373B2, “Protease inhibitors as antivirals” (priority 2021, dated 2023).

Legend:
[1] = assay type: in vitro ADME, Human; conditions: extraction ratio, compound at 1 uM, human liver microsomes 0.5 mg/mL
Protocol: (§1) Metabolic stability of novel protease inhibitors was determined via liver microsomal stability assay. Human, mouse, SD rat, beagle dog or monkey liver microsomes were incubated with the test compound for 5 to 60 minutes at 37° C., and then the remaining parent compound was quantified by LC-MS/MS. Percentage of the test compound remaining, half-life (t1/2), in vitro intrinsic clearance (CLint, in vitro), in vivo intrinsic clearance (CLint, in vivo), hepatic clearance (CLh) and extraction ratio (ER) were calculated.
(§2) Procedure: The assay was done as described in Baranczewski, P. et al. (2006) Pharmacological Reports 58:453-472; Pearson, P. and Wienkers, L. (2008) Handbook of Drug Metabolism, 2nd Edition. CRC Pres, P.478; and Venkatesh, P. et al. (2007) Biol. Pharm. Bull. 30:1021-2024. 0.625 mg/mL liver microsomes solution was prepared by mixing 2325 μL 100 mM of K-phosphate buffer (pH 7.4) containing 2.5 mM of MgCl2, 1.25 mM of EDTA, and 75 μL microsomes (20 mg/mL) in a vial for each species.
(§3) Positive control compound: (±) Verapamil hydrochloride (Cat No.: V4629; Lot No.: MKBV4993V; Source: Sigma)
40 μL aliquots of the liver microsome/test compound mixture were dispensed into 96-well plate in triplicate and pre-warmed the mixture for 5 minutes at 37° C. Then, 10 μL of 5 mM NADPH solution was added to each well to initiate the reaction, and gently mixed. The samples were incubated at 37° C. with gentle shaking.
(§4) For 0-min samples, 200 μL of ACN containing internal standard was added to 40 μL of liver microsome/test compound mixture, followed by addition of 5 mM NADPH, and mixed gently.
(§5) For negative control: 40 μL of liver microsome/test compound mixture was incubated at 37° C. with gentle shaking for 60 minutes, followed by addition of 200 μL ACN containing 1% FA and internal standard and 10 μL of 5 mM NADPH, mixed gently.
(§6) All samples were centrifuged at 4° C. for 20 minutes at 4,000 rpm. Then, 100 μL of the supernatant from each sample was transferred to a new 96-well plate and 100 μL of ultrapure water containing 1% FA was added to each well, and mixed gently. Samples were analyzed by LC-MS/MS.
(§7) Data Analysis: Peak area ratio (Peak Area of test compound/Peak Area of internal standard) was used to represent the concentration of compound in each sample. The remaining percentage (% Remaining) at appointed time points was calculated versus the concentration of compound at 0 min. The Ln value of the remaining percentage was linearly fitted against the incubation time.
(§8) The half-life and clearance were calculated using the following equations:
(§9) Determined percent of the remaining test compound: % remaining=[area at tx/average areas at t0]×100 (1) % metabolized=[100−% remaining] (2)
(§10) Calculated the half-life (t1/2) using the slope (k) of the log-linear regression from the concentration of remaining parent compound versus time (min) relationship: t1/2 (min)=−ln 2/k. (3)
(§11) Clint, in vitro (mL/min/mg) Clint,in vitro=k/c,(c:Liver microsome concentration in the incubation system) (4)
(§12) Hepatic Clearance (CLh) CLh=Clint,in vivo*Hepatic Blood Flow (mL/min/kg)/(Hepatic Blood Flow (mL/min/kg)+Clint,in vivo) (6)
(§13) Extraction ratio (ER): ER=CLint,in vivo/(Qh+CLint,in vivo)*100,Qh:liver blood flow (7)

[2] = assay type: in vitro ADME; conditions: extraction ratio, compound at 1 uM; for Liver Microsomal Stability (ER) SD rat: SD rat liver microsomes 0.5 mg/mL; for Liver Microsomal Stability (ER) Beagle dog: beagle dog liver microsomes 0.5 mg/mL; for Liver Microsomal Stability (ER) Mouse: mouse liver microsomes 0.5 mg/mL; for Liver Microsomal Stability (ER) Monkey: monkey liver microsomes 0.5 mg/mL
Protocol: as §1, §2, §3
40 μL aliquots of the liver microsome/test compound mixture were dispensed into 96-well plate in triplicate and pre-warmed the mixture for 5 minutes at 37° C. Then, 10 μL of 5 mM NADPH solution was added to each well to initiate the reaction, and gently mixed. The samples were incubated at 37° C. with gentle shaking. (Final concentrations: compound=1 μM; liver microsomes protein=0.5 mg/mL; MgCl2=2 mM; EDTA=1 mM; ACN=0.1%; DMSO=0.05%).
as §4, §5, §6, §7, §8, §9, §10, §11, §12, §13

[3] = mouse oral PK, female Balb/c, 40 mg/kg single dose; for AUC0-t / Cmax / Tmax / t1/2: plasma
Protocol: Pharmacokinetics of test compounds was evaluated following an oral administration of a single dose (at 40 mg/kg) to female Balb/c mice.
Procedure: Test compounds were administered to Balb/c mice (n=3 per sex per time point) by a single oral gavage. The target dose level for oral administration was 40 mg/kg. Blood samples were collected at pre-dose, and at 0.083, 0.25, 0.50, 1, 2, 4, 6, 8, and 12 hours post-dose. Concentrations of test compound were determined by an LC-MS/MS. Non-compartmental Pharmacokinetic parameters of test compounds were analyzed using Phoenix WinNonlin 8.3.
Animal Dosing: All animals were fasted overnight through approximately 4 hours post-dose. Tap water was provided to mice ad Libitum. The mice were dosed orally at 10.0 ml/kg. The formulation volume of the test compound administered to each animal was calculated based on the body weight measured on the day of dosing.
Sample Collection and Analysis: Approximately 0.20 mL of blood was collected via orbital sinus vein puncture into EDTA-K2 tubes. Plasma samples were harvested by centrifugation and stored at −80° C. until analysis. The analytical method for test compound involved protein precipitation by adding acetonitrile containing 1% FA and internal standard (A-1-a synthesized in house or Tolbutamide purchased from Sigma), and final analysis by LC-MS/MS. A standard curve was prepared using mouse plasma for the test compound. The calibration curve was linear over a concentration range of 1.0 to 1000 ng/mL.
Pharmacokinetic and Statistic Analysis: The reported plasma concentrations of test compounds were used to determine pharmacokinetic parameters, using a non-compartmental model for data analysis (Phoenix WinNonlin 8.3). The common pharmacokinetic parameters were calculated, whenever possible, from the plasma concentration-versus-time data. Nominal doses and sampling times were used, except where deviations were noted. […] BQL after Tmax would not participate in calculation of PK parameters.

SARS-CoV-2 = test: Anti-viral in vitro PRNT assay in Vero E6 cells; assay type: cell-based; conditions: Vero E6 cells, 1000 pfu, 3 days, plaque reduction; for EC50: read-out: anti-SARS-CoV2 (PRNT) in Vero E6 EC50

| SMILES | Liver Microsomal Stability (ER) Human [1] | Liver Microsomal Stability (ER) SD rat [2] | Liver Microsomal Stability (ER) Beagle dog [2] | Liver Microsomal Stability (ER) Mouse [2] | AUC0-t [3] | Cmax [3] | Tmax [3] | t1/2 [3] | anti-SARS-CoV2 (PRNT) in Vero E6 EC50 (μM) (SARS-CoV-2) | Liver Microsomal Stability (ER) Monkey [2] | EC50 (SARS-CoV-2) | F % (bioavailability) [3] |
| --- | --- | --- | --- | --- | --- | --- | --- | --- | --- | --- | --- | --- |
| CC(C)C[C@H](NC(=O)C(F)F)C(=O)N1C[C@H]2[C@@H]([C@H]1C(=O)N[C@H](C#N)C[C@@H]1CCNC1=O)C2(C)C [Compound H-1-b] | 0.09 | 0.06 | 0.05 | 0.35 | 304 ng·h/mL | 193 ng/mL | 30 min | 2.39 h |  |  |  |  |
| C=CC(=O)N[C@H](C[C@@H]1CCNC1=O)NC(=O)[C@H](CC(C)C)NC(=O)OCc1ccccc1 [Compound B-1-f] | −0.19 | 0.13 | 0.04 | 0.07 |  |  |  |  | inactive | 0.04 |  |  |
| C[C@@H](C=O)NC(=O)[C@@H]1[C@@H]2[C@H](CN1C(=O)[C@@H](NC(=O)C(F)(F)F)C1CC1)C2(C)C [Compound F-3-c] | −0.35 | 0.02 | −0.04 | −0.05 |  |  |  |  | inactive | −0.03 |  |  |
| COc1cccc2[nH]c(C(=O)N[C@@H](CC(C)C)C(=O)N[C@H](C=O)C[C@@H]3CCNC3=O)cc12 [Compound A-5-a] | 0.10 | 0.11 | 0.05 | 0.19 |  |  |  |  |  |  | 1520 nM |  |
| C=CC(=O)N[C@H](C[C@@H]1CCNC1=O)NC(=O)[C@H](CC1CCCCC1)NC(=O)OCc1ccccc1 [Compound B-2-e] | 0.73 | 0.19 | 0.47 | 0.43 |  |  |  |  | inactive | 0.70 |  |  |
| CC(C)(C)[C@H](NC(=O)C(F)(F)F)C(=O)N1C[C@H]2[C@@H]([C@H]1C(=O)N[C@@H](C[C@@H]1CCNC1=O)C(=O)CO)C2(C)C [Compound D-1-c] | 0.04 | 0.04 | −0.06 | 0.18 | 1359 ng·h/mL | 410 ng/mL | 30 min | 2.9 h |  |  | 610 nM |  |
| CC(C)(C)[C@H](NC(=O)C(F)F)C(=O)N1C[C@H]2[C@@H]([C@H]1C(=O)N[C@H](C#N)C[C@@H]1CCNC1=O)C2(C)C [Compound D-3-b] | 0.01 | 0.02 | −0.01 | 0.26 | 3768 ng·h/mL | 1190 ng/mL | 60 min | 1.86 h |  |  | 3570 nM | 20.2% |
| C[C@H](NC(=O)[C@@H]1[C@@H]2[C@H](CN1C(=O)[C@@H](NC(=O)C(F)(F)F)C(C)(C)C)C2(C)C)C(=O)CCl [Compound F-1-b] | 0.48 | 0.53 | 0.46 | 0.38 |  |  |  |  | inactive | 0.44 |  |  |
| C=CC(=O)N[C@H](C[C@@H]1CCNC1=O)NC(=O)[C@@H]1[C@@H]2[C@H](CN1C(=O)[C@@H](NC(=O)C(F)(F)F)C(C)(C)C)C2(C)C [Compound D-1-e] | −0.05 | 0.04 | −0.04 | −0.04 |  |  |  |  | inactive | −0.10 |  |  |
| COc1cccc2[nH]c(C(=O)N[C@@H](CC(C)C)C(=O)N[C@@H](C[C@@H]3CCNC3=O)C(=O)CO)cc12 [Compound A-5-d] | 0.09 | 0.11 | 0.07 | 0.38 |  |  |  |  |  |  | 3500 nM |  |
| CC(C)C[C@H](NC(=O)c1cc2c(F)cccc2[nH]1)C(=O)N[C@H](C=O)C[C@@H]1CCNC1=O [Compound A-3-c] | 0.18 | 0.14 | −0.02 | 0.14 |  |  |  |  |  |  | 310 nM |  |
| C[C@@H](OC(C)(C)C)[C@H](NC(=O)OCc1ccccc1)C(=O)N[C@@H](CC1CCCCC1)C(=O)N[C@H](C=O)C[C@@H]1CCNC1=O [Compound C-2-b] | 0.66 | 0.29 | 0.48 | 0.48 | 665.2 ng·h/mL | 496 ng/mL | 15 min | 0.876 h |  | 0.43 | 730 nM | 5.0% |
| COc1cccc2[nH]c(C(=O)N[C@@H](CC(C)C)C(=O)N[C@H](C#N)C[C@@H]3CCNC3=O)cc12 [Compound A-5-b] | 0.08 | 0.22 | 0.12 | 0.11 |  |  |  |  | inactive | 0.47 |  |  |
| CC(C)C[C@H](NC(=O)OCc1ccccc1)C(=O)N[C@H](C#N)C[C@@H]1CCNC1=O [Compound B-1-e] | 0.24 | 0.48 | 0.37 | 0.00 |  |  |  |  |  | 0.11 | 10500 nM |  |
